In patent US6582351B1, “Imidazopyridinone derivatives and their use as phosphodiesterase inhibitors” (Fujisawa Pharmaceutical Co., Ltd., priority 1999, dated 2003):
pIC50: −log10 of the molar value.

How the values were obtained:
human platelet PDE-V = target: T1, human platelet PDE-V (Homo sapiens, UniProt O76074); experiment: cGMP-Phosphodiesterase (PDE) assay; enzymatic inhibitory test against human platelet PDE-V; assay type: biochemical; settings: 0.1 μM [3H]-cGMP substrate, 30° C., 10 minutes
T1 construct: Human platelet cGMP-PDE was separated from other isozymes in human platelets; from tissue; host or cells: human platelets
Procedure: [II] Test Method: cGMP-Phosphodiesterase (PDE) Assay
Human platelet cGMP-PDE was separated from other isozymes in human platelets by a modification of the method of Thompson et. al. (see Cyclic Nucleotide Phosphodiesterase (PDE), in Methods of Enzymatic analysis, Vol 4, p127-234, 1984). Specific inhibitory activity of PDE-V was measured by following procedure. In enzyme inhibition assays, the test compounds were dissolved in DMSO and then diluted with assay buffer (50 mM Tris-HCl, 0.077 mg/ml dithiothreitol and 10 mg/ml snake venom, 1 mM EGTA, pH 8.0), at final concentrations ranging from 10^−10 to 10^−6 M. Assays were performed at 0.1 μM substrate ([^3H]-cGMP) concentration, at 30° C. for 10 minutes using enzyme dilutions which gave 10-20% hydrolysis of substrate. Each assay was initiated by addition of substrate and terminated by addition of anion exchange resin (Dowex® 1-X8, […]) followed by centrifugation for 10 minutes (3000 rpm, at 4° C.). Radioactivity of supernatant ([^3H]-GMP) was assayed by liquid scintillation counting.

melting point [°C] | pIC50 (human platelet PDE-V) | SMILES
154.5 to 155 | > 8.00 | COc1ccc(Cn2c(=O)n([C@H](C)CO)c3ncc(C(F)(F)F)cc32)cc1Cl [Example 4(2), 1-(3-Chloro-4-methoxybenzyl)-3-((R)-2-hydroxy-1-methylethyl)-6-trifluoromethyl-2,3-dihydro-1H-imidazo[4,5-b]pyridin-2-one]
191 to 193 | > 8.00 | COc1ccc(Cn2c(=O)n([C@H]3CC[C@H](O)CC3)c3ccc(C#N)cc32)cc1C#N [Example 2(81), 5-Cyano-3-(3-cyano-4-methoxybenzyl)-1-(trans-4-hydroxycyclohexyl)-2,3-dihydro-1H-benzimidazol-2-one]
158 to 160 | > 8.00 | COc1ccc(Cn2c(=O)n(-c3ccc4[nH]cnc4c3)c3ccc(C(F)(F)F)cc32)cc1Cl [Example 2(21), 1-(1H-Benzimidazol-5-yl)-3-(3-chloro-4-methoxybenzyl)-5-trifluoromethyl-2,3-dihydro-1H-benzimidazol-2-one]
